Measured values: patent publication US8859580B2 (Boehringer Ingelheim International GmbH, priority 2007, dated 2014)

The molecules below were run against T1, 11β-HSD1 (Homo sapiens, UniProt P28845) (assay: In vitro inhibition of 11β-HSD1, HTRF detection of cortisol generated from cortisone by human liver microsomes). Settings: 11β-HSD IC50 (nM), 1 hour at 37° C., pH 6.0, NADPH 200 μM, cortisone 80 nM, inhibition relative to carbenoxolone signal.
T1 construct: detecting cortisol generated from cortisterone by human liver microsomes; from tissue; host or cells: human liver microsomes
Type: biochemical
Description: Cortisol generated in the reaction is then detected with a competitive immunoassay, involving two HTRF conjugates: cortisol linked to XL665 and anti-cortisol antibody labeled with Europium cryptate. The incubation period for detection reaction was typically 2 hours. […] The ratio of the two emission signals is then calculated (Em665*10000/Em615). […] Each assay also contained a calibration curve with cortisol to transform the fluorescent data into cortisol concentrations. Percent inhibition of each compound was determined relative to the carbenoxolone signal and IC50 curves were generated.

T1 sequence (P28845 whole entry): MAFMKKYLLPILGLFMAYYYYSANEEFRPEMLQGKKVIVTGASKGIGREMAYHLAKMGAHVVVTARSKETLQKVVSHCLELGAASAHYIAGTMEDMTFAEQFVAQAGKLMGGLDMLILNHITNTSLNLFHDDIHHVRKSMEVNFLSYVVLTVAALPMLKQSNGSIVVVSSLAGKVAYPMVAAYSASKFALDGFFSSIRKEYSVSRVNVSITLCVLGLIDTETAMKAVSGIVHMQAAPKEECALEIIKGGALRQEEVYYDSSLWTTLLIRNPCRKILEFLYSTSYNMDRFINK

| SMILES | IC50 [nM] |
| --- | --- |
| CC1(C)[C@@H]2Cc3ccc(O)cc3[C@@]1(C)CCN2C(=O)c1ccc2nc[nH]c2c1 [Example 79, (3H-Benzoimidazol-5-yl)-[(2S,6R)-8-hydroxy-6,11,11-trimethyl-1,2,5,6-tetrahydro-4H-2,6-methano-benzo[d]azocin-3-yl]-methanone] | 1370 |
| Cc1nc2cc3c(cc2n1C)C[C@H]1N(C(=O)c2ccc4nc[nH]c4c2)CC[C@]3(C)C1(C)C [Example 243, (3H-Benzoimidazol-5-yl)-[(6R,10S)-5,6,7,8,9,10-hexahydro-2,3,10,12,12-pentamethyl-6,10-methano-imidazo[4,5-i][3]benzazocin-7-yl]-methanone] | 113 |
| CC1(C)[C@H]2Cc3ccccc3[C@]1(C)CCN2C(=O)c1ccc(N)c(F)c1 [Example 296, (4-Amino-3-fluoro-phenyl)-[(2R,6S)-6,11,11-trimethyl-1,2,5,6-tetrahydro-4H-2,6-methano-benzo[d]azocin-3-yl]-methanone] | 32 |
| CC1(C)[C@H]2Cc3cc4nn[nH]c4cc3[C@]1(C)CCN2C(=O)c1ccc2nc[nH]c2c1 [Example 265, (3H-Benzoimidazol-5-yl)-[(6R,10S)-5,6,7,8,9,10-hexahydro-10,12,12-trimethyl-6,10-methano-1H-triazolo[5,4-i][3]benzazocin-7-yl]-methanone] | 22 |
| CC1(C)[C@H]2Cc3ccccc3[C@]1(C)CCN2C(=O)c1cccc2ccccc12 [Example 284, Naphthalen-1-yl-[(2R,6S)-6,11,11-trimethyl-1,2,5,6-tetrahydro-4H-2,6-methano-benzo[d]azocin-3-yl]-methanone] | 666 |
| Cc1cnc(-c2nc3cc4c(cc3o2)[C@]2(C)CCN(C(=O)c3ccc5nc[nH]c5c3)[C@H](C4)[C@H]2C)cn1 [Example 333, (3H-Benzoimidazol-5-yl)-[(6R,10R,12S)-5,6,7,8,9,10-hexahydro-10,12-dimethyl-2-(5-methyl-pyrazin-2-yl)-6,10-methano-oxazolo[5,4-i][3]benzazocin-7-yl]-methanone] | 84 |
| CNC(=O)c1ccc2c(c1)CC1N(C(=O)c3ccc4nc[nH]c4c3)CCC2(C)C1(C)C (centres unmarked) [Example 162, 3-(3H-Benzoimidazole-5-carbonyl)-6,11,11-trimethyl-1,2,3,4,5,6-hexahydro-2,6-methano-benzo[d]azocine-9-carboxylic acid methylamide] | 1090 |
| CC(C)(C)c1nc2cc3c(cc2[nH]1)[C@]1(C)CCN(C(=O)c2ccc4nc[nH]c4c2)[C@H](C3)C1(C)C [Example 273, (3H-Benzoimidazol-5-yl)-[(6R,10S)-2-tert-butyl-5,6,7,8,9,10-hexahydro-10,12,12-trimethyl-6,10-methano-imidazo[5,4-i][3]benzazocin-7-yl]-methanone] | 35 |
| COC12CCN(C(=O)c3ccc4nc[nH]c4c3)C(Cc3ccccc31)C2(C)C (centres unmarked) [Example 103, (3H-Benzoimidazol-5-yl)-(6-methoxy-11,11-dimethyl-1,2,5,6-tetrahydro-4H-2,6-methano-benzo[d]azocin-3-yl)-methanone] | 86 |
| COc1c(F)cc(C(=O)N2CC[C@@]3(C)c4ccccc4C[C@@H]2C3(C)C)cc1F [Example 331, (3,5-Difluoro-4-methoxy-phenyl)-[(2R,6S)-6,11,11-trimethyl-1,2,5,6-tetrahydro-4H-2,6-methano-benzo[d]azocin-3-yl]-methanone] | 439 |
| CCCNC(=O)c1ccc(C(=O)N2CC[C@@]3(C)c4cccc(O)c4C[C@@H]2C3(C)C)cc1 [Example 171, 4-[(2R,6S)-10-Hydroxy-6,11,11-trimethyl-1,2,5,6-tetrahydro-4H-2,6-methano-benzo[d]azocine-3-carbonyl]-N-propyl-benzamide] | 1650 |
| CC1(C)[C@H]2Cc3c(O)cccc3[C@]1(C)CCN2C(=O)c1cc(-c2ccccc2)n[nH]1 [Example 221, [(2R,6S)-10-Hydroxy-6,11,11-trimethyl-1,2,5,6-tetrahydro-4H-2,6-methano-benzo[d]azocin-3-yl]-(5-phenyl-2H-pyrazol-3-yl)-methanone] | 2430 |
| CN(C(=O)c1ccc(C(=O)N2CC[C@@]3(C)c4cccc(O)c4C[C@@H]2C3(C)C)cc1)c1ccccc1 [Example 208, 4-[(2R,6S)-10-Hydroxy-6,11,11-trimethyl-1,2,5,6-tetrahydro-4H-2,6-methano-benzo[d]azocine-3-carbonyl]-N-methyl-N-phenyl-benzamide] | 238 |
| Cc1nc2cc3c(cc2o1)[C@]1(C)CCN(C(=O)c2ccc4nc[nH]c4c2)[C@H](C3)[C@H]1C [Example 305, (3H-Benzoimidazol-5-yl)-[(6R,10R,12S)-5,6,7,8,9,10-hexahydro-2,10,12-trimethyl-6,10-methano-oxazolo[5,4-i][3]benzazocin 7-yl]-methanone] | 153 |
| O=C(c1ccc2nc[nH]c2c1)N1CCC2CC1Cc1ccccc12 (centres unmarked) [Example 60, (3H-Benzoimidazol-5-yl)-(1,2,5,6-tetrahydro-4H-2,6-methano-benzo[d]azocin-3-yl)-methanone] | 228 |
| CC12CCN(C(=O)c3ccc4[nH]cnc4c3)C(Cc3cc(/C(N)=N/O)ccc31)C2(C)C (centres unmarked) [Example 175, 3-(1H-Benzoimidazole-5-carbonyl)-N-hydroxy-6,11,11-trimethyl-1,2,3,4,5,6-hexahydro-2,6-methano-benzo[d]azocine-9-carboxamidine] | 344 |
| CC1(C)[C@H]2Cc3ccccc3[C@]1(C)CCN2C(=O)c1ccc2[nH]ncc2c1 [Example 293, (1H-Indazol-5-yl)-[(2R,6S)-6,11,11-trimethyl-1,2,5,6-tetrahydro-4H-2,6-methano-benzo[d]azocin-3-yl]-methanone] | 27 |
| CC(=O)Nc1ccc(C(=O)N2CC[C@@]3(C)c4cccc(O)c4C[C@@H]2C3(C)C)cc1F [Example 27, N-{2-Fluoro-4-[(2R,6S)-10-hydroxy-6,11,11-trimethyl-1,2,5,6-tetrahydro-4H-2,6-methano-benzo[d]azocine-3-carbonyl]-phenyl}-acetamide] | 629 |
| N#CC12CCN(C(=O)c3ccc4nc[nH]c4c3)C(Cc3ccc(O)cc31)C2 (centres unmarked) [Example 226, 3-(3H-Benzoimidazole-5-carbonyl)-8-hydroxy-2,3,4,5-tetrahydro-1H-2,6-methano-benzo[d]azocine-6-carbonitrile] | 1410 |
| CC1(C)[C@H]2Cc3ccccc3[C@]1(C)CCN2C(=O)c1cccc(S(N)(=O)=O)c1 [Example 343, 3-[(2R,6S)-6,11,11-Trimethyl-1,2,5,6-tetrahydro-4H-2,6-methano-benzo[d]azocine-3-carbonyl]-benzenesulfonamide] | 1520 |
| CC[C@]12CCN(C(=O)c3ccc4nc[nH]c4c3)[C@H](Cc3ccc(O)cc31)[C@H]2C (racemic) [Example 200, (3H-Benzoimidazol-5-yl)-(6-ethyl-8-hydroxy-11-methyl-1,2,5,6-tetrahydro-4H-2,6-methano-benzo[d]azocin-3-yl)-methanone] | 117 |
| CC1(C)[C@H]2Cc3c(O)cccc3[C@]1(C)CCN2C(=O)c1cccc2[nH]cnc12 [Example 18, (1H-Benzoimidazol-4-yl)-[(2R,6S)-10-hydroxy-6,11,11-trimethyl-1,2,5,6-tetrahydro-4H-2,6-methano-benzo[d]azocin-3-yl]-methanone] | 3680 |

Same assay, conditions: 1 hour at 37° C., pH 6.0, NADPH 200 μM, cortisone 80 nM, inhibition relative to carbenoxolone signal, read-out: 11β-HSD IC50

| SMILES | IC50 [nM] |
| --- | --- |
| O=C(c1ccc2nc[nH]c2c1)N1CC[C@@H]2C[C@H]1Cc1cccnc12 (racemic) [Example 325, (3H-Benzoimidazol-5-yl)-(5,8,9,10-tetrahydro-6H-6,10-methano-pyrido[3,2-d]azocin-7-yl)-methanone] | 771 |
